Structures are written as SMILES.

As a reminder, the Ki is the equilibrium dissociation constant of an inhibitor or competing ligand from its target. The low end stands for higher affinity, the high end for lower affinity.

The target in assay [1] is T1, Kappa-type opioid receptor (Cavia porcellus, UniProt P41144). Description: Displacement of [3H]U-69,593 from kappa opioid receptor in guinea pig brain membranes by scintillation counting analysis. It counts as cell membranes, Membrane.
Assay [2] concerns the target T2, Sigma intracellular receptor 2 (Rattus norvegicus, UniProt Q5U3Y7).
T2 sequence (Q5U3Y7 whole entry): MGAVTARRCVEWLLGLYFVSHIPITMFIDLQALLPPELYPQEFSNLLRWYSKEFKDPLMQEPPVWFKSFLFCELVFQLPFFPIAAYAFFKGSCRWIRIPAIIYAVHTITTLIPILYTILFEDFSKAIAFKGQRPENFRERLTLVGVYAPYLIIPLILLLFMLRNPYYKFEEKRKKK
Description: Displacement of [3H]DTG from sigma2 receptor in Sprague-Dawley rat liver membranes after 120 mins by scintillation counting analysis. Type of assay: cell membranes, Membrane.

The target of assay [3] is Delta-type opioid receptor (Rattus norvegicus, UniProt P33533). Description: Displacement of [3H]DPDPE from delta opioid receptor in Sprague-Dawley rat brain membranes after 120 mins by scintillation counting analysis. It counts as cell membranes, Membrane.
Delta-type opioid receptor, sequence (P33533 whole entry): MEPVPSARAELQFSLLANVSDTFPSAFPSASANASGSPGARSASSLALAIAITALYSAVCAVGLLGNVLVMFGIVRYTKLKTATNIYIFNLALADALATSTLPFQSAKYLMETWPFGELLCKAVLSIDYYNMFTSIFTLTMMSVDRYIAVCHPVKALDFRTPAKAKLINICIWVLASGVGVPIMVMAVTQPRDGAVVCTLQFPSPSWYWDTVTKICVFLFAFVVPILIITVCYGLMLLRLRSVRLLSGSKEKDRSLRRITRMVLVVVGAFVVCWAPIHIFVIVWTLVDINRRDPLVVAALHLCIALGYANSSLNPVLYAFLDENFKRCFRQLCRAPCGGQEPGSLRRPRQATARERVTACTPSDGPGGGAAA
Assay [4] has as its target Mu-type opioid receptor (Cavia porcellus, UniProt P97266). Description: Displacement of [3H]DAMGO from mu opioid receptor in guinea pig brain membranes after 120 mins by scintillation counting analysis. Type of assay: cell membranes, Membrane. On the technique in general: Loss of bound radioactivity is the signal in a displacement assay; it reports binding, not function.

Assay [5] concerns the target T1, Kappa-type opioid receptor. Description: Displacement of [3H]U-69,593 from kappa opioid receptor in guinea pig brain membranes after 120 mins by scintillation counting analysis. Type of assay: cell membranes, Membrane.
Assay [6] has as its target Sigma non-opioid intracellular receptor 1 (Cavia porcellus, UniProt Q60492). Description: Displacement of [3H]-(+)-Pentazocine from sigma1 receptor in guinea pig brain cortex membranes after 120 mins by scintillation counting analysis. It counts as cell membranes.
The target of assay [7] is Kappa-type opioid receptor (Homo sapiens) (UniProt P41145). Description: Agonist activity at kappa opioid receptor in HEK293 cells at 1 uM after 30 mins by [35S]-GTPgammaS binding assay relative to control. It counts as functional, cell-based.
Kappa-type opioid receptor (Homo sapiens), sequence (P41145 whole entry): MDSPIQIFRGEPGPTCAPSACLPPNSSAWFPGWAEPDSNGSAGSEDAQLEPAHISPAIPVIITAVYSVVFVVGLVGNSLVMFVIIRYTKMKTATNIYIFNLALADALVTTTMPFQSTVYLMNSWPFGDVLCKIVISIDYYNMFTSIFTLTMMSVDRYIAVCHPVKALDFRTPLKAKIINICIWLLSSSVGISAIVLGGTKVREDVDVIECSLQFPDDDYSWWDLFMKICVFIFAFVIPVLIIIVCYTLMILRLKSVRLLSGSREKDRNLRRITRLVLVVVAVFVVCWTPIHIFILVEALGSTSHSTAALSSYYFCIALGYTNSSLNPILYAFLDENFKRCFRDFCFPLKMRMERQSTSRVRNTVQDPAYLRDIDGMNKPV

Mu-type opioid receptor, sequence (P97266 whole entry): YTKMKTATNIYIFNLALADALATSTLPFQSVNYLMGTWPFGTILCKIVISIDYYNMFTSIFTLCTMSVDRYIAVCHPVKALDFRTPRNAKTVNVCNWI
T1 sequence (P41144 whole entry): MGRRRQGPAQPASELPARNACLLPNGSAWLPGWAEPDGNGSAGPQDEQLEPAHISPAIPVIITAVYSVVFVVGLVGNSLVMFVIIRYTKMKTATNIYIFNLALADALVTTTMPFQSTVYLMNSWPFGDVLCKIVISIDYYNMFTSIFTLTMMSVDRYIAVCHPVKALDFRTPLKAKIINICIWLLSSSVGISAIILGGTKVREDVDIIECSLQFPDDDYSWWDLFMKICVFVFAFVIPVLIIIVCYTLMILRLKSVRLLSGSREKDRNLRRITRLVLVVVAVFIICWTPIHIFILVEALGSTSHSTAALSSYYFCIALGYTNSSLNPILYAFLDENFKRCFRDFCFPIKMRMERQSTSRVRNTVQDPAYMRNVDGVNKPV
Sigma non-opioid intracellular receptor 1, sequence (Q60492 whole entry): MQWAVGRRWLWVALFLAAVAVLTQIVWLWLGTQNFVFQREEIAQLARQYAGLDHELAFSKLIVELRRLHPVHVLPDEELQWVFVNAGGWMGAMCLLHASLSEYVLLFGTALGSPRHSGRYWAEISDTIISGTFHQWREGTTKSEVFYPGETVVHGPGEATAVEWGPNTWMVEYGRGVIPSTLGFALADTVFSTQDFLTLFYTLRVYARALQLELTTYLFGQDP

On to `COC(=O)N1CCC(NC(=O)Cc2ccc(Cl)c(Cl)c2)C([C@@H](C)N2CCCC2)C1` (stereo partly drawn), for which the Ki in assay [1] was determined as 0.31 nM.
Compound `O=C(Cc1ccc(Cl)c(Cl)c1)N1CC2OCCN(C(=O)Cc3ccc(Cl)c(Cl)c3)C2C(N2CCCC2)C1` (racemic) gave a Ki in assay [2] of more than 1000 nM.
On to `O=C(Cc1ccc(Cl)c(Cl)c1)N1CCOC2CN(Cc3ccccc3)CC(N3CCCC3)C21` (racemic), for which the Ki in assay [3] is 260 nM; in assay [4], 261 nM; in assay [2], more than 1000 nM; in assay [5] it was 912 nM; in assay [6] it was 983 nM.
Turning to `CCCCN1CC2OCCN(C(=O)Cc3ccc(Cl)c(Cl)c3)C2C(N2CCCC2)C1` (racemic), the inhibitory constant (Ki) in assay [3] is more than 1000 nM; in assay [4], 502 nM; in assay [2] it was 316 nM; in assay [5], more than 1000 nM; in assay [6], 192 nM.
For `CCN1CC2OCCN(C(=O)Cc3ccc(Cl)c(Cl)c3)C2C(N2CCCC2)C1` (racemic), the inhibitory constant (Ki) was more than 1000 nM in assay [3]; more than 1000 nM in assay [4]; 102 nM in assay [2]; 1300 nM in assay [5]; 391 nM in assay [6].
For the compound `O=C(Cc1ccc(Cl)c(Cl)c1)N1CCOC2CNCC(N3CCCC3)C21` (racemic), the Ki in assay [3] was more than 1000 nM; in assay [4], more than 1000 nM; in assay [2], more than 1000 nM; in assay [5] it was 132 nM; in assay [6] it was more than 1000 nM. The compound further yielded an Activity in assay [7] of 27%.
As to `O=C1COC2CN(C(=O)Cc3ccc(Cl)c(Cl)c3)CC(N3CCCC3)C2N1` (racemic), the Ki in assay [3], in assay [4], in assay [2], in assay [5] and in assay [6] was more than 1000 nM throughout.
On to `O=C(Cc1ccc(Cl)c(Cl)c1)N1CCOC2CN(Cc3cccnc3)CC(N3CCCC3)C21` (racemic), for which the inhibition constant Ki is 666 nM in assay [3]; 633 nM in assay [4]; more than 1000 nM in assay [2]; more than 1000 nM in assay [5]; 291 nM in assay [6].
For the compound `O=C(Cc1ccc(Cl)c(Cl)c1)N1CCOC2CN(C3CCCC3)CC(N3CCCC3)C21` (racemic), the inhibition constant Ki is 717 nM in assay [3]; 447 nM in assay [4]; 45 nM in assay [2]; more than 1000 nM in assay [5]; 181 nM in assay [6].
On to `CN1CC2OCCN(C(=O)Cc3ccc(Cl)c(Cl)c3)C2C(N2CCCC2)C1` (racemic), for which the Ki is more than 1000 nM in assay [3]; more than 1000 nM in assay [4]; more than 1000 nM in assay [2]; 286 nM in assay [5]; more than 1000 nM in assay [6].

These data come from ChEMBL document CHEMBL4190182 (Medchemcomm, 2016).
